The text below walks through data of patent publication US9107415B2, “2-(substituted-phenyl)-cyclopentane-1,3-dione compounds, and derivatives thereof” (Syngenta Limited, priority 2011, dated 2015).

Common to all, as to type: in vivo
In test [1] the test system is Triticum aestivum, wheat (TRZAW). Put plainly: Biological Example 3 glasshouse screen, post-emergence, phytotoxicity on wheat. Particulars: 360 h, 15 DAA, no safener, read-out: TRZAW percentage phytotoxicity; for pest or weed control at 30 g/ha: application rate 30 g/ha; for pest or weed control at 60 g/ha: application rate 60 g/ha. In outline:
(§1)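 Selectivity screen without safener: 12-day-old plants sprayed post-emergence with acetone/IF50-formulated compound plus 0.2% v/v X-77, kept in glasshouse, visually rated for % injury 15 days after application.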

The next test has as its system Lolium perenne (LOLPE). The test can be described thus: Biological Example 1 glasshouse screen, post-emergence herbicidal activity. Particulars: 312 h, application rate 250 g/ha, evaluated after 13 days, read-out: LOLPE percentage phytotoxicity. In outline: (§2)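 Pots in a glasshouse (24/16°C day/night, 14 h light, 65% humidity) were sprayed one day after sowing (pre-emergence) or after 8 days (post-emergence), using acetone/water (50:50) with 0.5% Tween 20. Phytotoxicity was scored visually as % damage (0-100) 13 days after application.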

A further test has as its system Avena fatua (AVEFA). Described as above. Particulars: 312 h, application rate 250 g/ha, evaluated after 13 days, read-out: AVEFA percentage phytotoxicity. In outline:
as §2

Test [2] deals with Alopecurus myosuroides (ALOMY). The description is as above. As to conditions: 312 h, application rate 250 g/ha, evaluated after 13 days, read-out: ALOMY percentage phytotoxicity. In outline:
(§3)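 Seeds sown in standard soil in pots were sprayed 1 day (pre-emergence) or 8 days (post-emergence) after sowing with technical active ingredient in acetone/water (50:50) containing 0.5% Tween 20. Plants grown at 24/16°C day/night, 14 h light, 65% humidity. Visual % phytotoxicity scored after 13 days (100% = total damage).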

In test [3] the test system is Echinochloa crus-galli (ECHCG). The test is described as above. Particulars: 312 h, application rate 250 g/ha, evaluated after 13 days, read-out: ECHCG percentage phytotoxicity. In outline:
as §3

In test [4] the test system is Echinochloa crus galli, barnyardgrass (ECHCG). Put plainly: Biological Example 3 glasshouse screen, post-emergence herbicidal activity. Particulars: 360 h, 15 DAA, no safener, read-out: ECHCG percentage phytotoxicity; for pest or weed control at 30 g/ha: application rate 30 g/ha; for pest or weed control at 60 g/ha: application rate 60 g/ha. The method in brief: as §1

The next test relates to Winter Barley “Suzuka”. Put plainly: Biological Example 4B post-emergence phytotoxicity on cereal crops. As to conditions: 14 DAA, technical compound in IF50 + Adigor, mean of two. As for the experimental part: (§4) Seeds of a variety of test species are sown in standard soil in pots. After cultivation for 14 days under controlled conditions in a glasshouse (at 22/16°C., day/night; 16 hours light; 65% humidity), the plants are sprayed with an aqueous spray solution derived from the formulation of the technical active ingredient dissolved in acetone plus IF50 containing
(§5) 10.56 wt % Emulsogen™EL (castor oil ethoxylate, CAS Registry number 61791-12-6)
(§6) 42.22 wt % N-Methyl pyrrolidone
(§7) 42.22 wt % dipropylene glycol monoethyl ether
(§8) at a 1:20 ratio of (technical active ingredient:IF50). The adjuvant Adigor™(an adjuvant containing inter alia methylated rapeseed oil, e.g. available from Syngenta) is added to form a 0.5% v/v solution. The test plants are then grown on under controlled conditions in the glasshouse (at 22/16°C., day/night; 16 hours light; 65% humidity) and are watered twice daily. After 14 days the test is evaluated (100%=total damage to plant; 0%=no damage to plant).
(§9) […] Herbicidal activity (phytotoxicity) is evaluated visually, and an assessed percentage phytotoxicity score is given for each herbicidal application on each plant species (with 100%=total damage to plant; 0%=no damage to plant). Two repetitions are made for each experiment, and the mean herbicidal activity (phytotoxicity) data is reported.

Another test has as its system Winter Wheat “Hereward”. Described as above. Particulars: 14 DAA, technical compound in IF50 + Adigor, mean of two. As for the experimental part: as §4, §5, §6, §7, §8, §9
Where [5] appears, read: 30 g/ha, cloquintocet-mexyl 50 g/ha.
Where [6] appears, read: 60 g/ha, cloquintocet-mexyl 0 g/ha.
[7] abbreviates: 60 g/ha, cloquintocet-mexyl 50 g/ha.
Setting [8] is: 15 g/ha, cloquintocet-mexyl 50 g/ha.

Structures are written as SMILES.

For the compound `CC#Cc1cc(C)c(C2=C(O)CC(Cc3ccc(C)cn3)C2=O)c(C)c1` (centres unmarked) [Compound A-8], the pest or weed control at 30 g/ha in test [1] was 40%; in test [4], 70%. Besides, the pest or weed control at 250 g/ha (in the test on Lolium perenne (LOLPE); with Avena fatua (AVEFA); in test [2]; in test [3]) was 100% each time. The “Winter Barley “Suzuka” phytotoxicity (%)” value in the test on Winter Barley “Suzuka” (setting [5]) is recorded as 9%; in the test on Winter Barley “Suzuka” (setting [6]), 73%; in the test with Winter Barley “Suzuka” (setting [7]), 60%. Further, the figures for the “Winter Wheat “Hereward” phytotoxicity (%)” value with Winter Wheat “Hereward” (setting [5]), in the test on Winter Wheat “Hereward” (setting [6]) and in the test with Winter Wheat “Hereward” (setting [7]) were 13%, 63% and 45%, respectively.
Consider `CC#Cc1cc(C)c(C2=C(O)CC(Cc3ccc(F)cn3)C2=O)c(C)c1` (centres unmarked) [Compound A-11], for which the figures for the pest or weed control at 30 g/ha in test [1] and in test [4] were 40% and 100%, respectively. The pest or weed control at 60 g/ha amounted to 50% in test [1] and 100% in test [4]. Further, the pest or weed control at 250 g/ha in the test on Lolium perenne (LOLPE) is 100%; with Avena fatua (AVEFA), 90%; in test [2] it was 100%; in test [3], 100%. For the same compound, the “Winter Barley “Suzuka” phytotoxicity (%)” value was determined as 8% in the test with Winter Barley “Suzuka” (setting [5]), 68% in the test on Winter Barley “Suzuka” (setting [6]) and 33% with Winter Barley “Suzuka” (setting [7]). Moreover, the “Winter Wheat “Hereward” phytotoxicity (%)” value in the test on Winter Wheat “Hereward” (setting [5]) stood at 3%; with Winter Wheat “Hereward” (setting [6]) it was 55%; in the test on Winter Wheat “Hereward” (setting [7]) it was 8%.
As for `CC#Cc1cc(C)c(C2=C(O)CC(Cc3ccc(C#N)cn3)C2=O)c(C)c1` (centres unmarked) [Compound A-14], the pest or weed control at 30 g/ha in test [1] was found to be 20%; in test [4], 90%. The values for the pest or weed control at 60 g/ha in test [1] and in test [4] were 40% and 90%, respectively. The pest or weed control at 250 g/ha is 100% in the test on Lolium perenne (LOLPE), 90% in the test with Avena fatua (AVEFA), 100% in test [2] and 100% in test [3]. The “Winter Barley “Suzuka” phytotoxicity (%)” value with Winter Barley “Suzuka” (setting [5]) was found to be 45%; in the test on Winter Barley “Suzuka” (setting [6]), 97%; in the test with Winter Barley “Suzuka” (setting [7]), 93%. Besides, the “Winter Wheat “Hereward” phytotoxicity (%)” value stood at 30% in the test on Winter Wheat “Hereward” (setting [5]), 80% with Winter Wheat “Hereward” (setting [6]) and 78% in the test on Winter Wheat “Hereward” (setting [7]).
`CC#Cc1cc(C)c(C2C(=O)CC(Cc3ccn(C)n3)C2=O)c(C)c1` (centres unmarked) [Compound A-19]: the pest or weed control at 15 g/ha in test [1] (application rate 15 g/ha) was 20%; in test [4] (application rate 15 g/ha) it was 70%. Besides, the results for the pest or weed control at 30 g/ha in test [1] and in test [4] were 70% and 100%, respectively. The pest or weed control at 250 g/ha (with Lolium perenne (LOLPE); in the test on Avena fatua (AVEFA); in test [2]; in test [3]) was 100% throughout. Further, the “Winter Barley “Suzuka” phytotoxicity (%)” value in the test on Winter Barley “Suzuka” (setting [8]) came to 3%; with Winter Barley “Suzuka” (setting [5]), 55%; in the test with Winter Barley “Suzuka” (setting [6]), 97%; in the test with Winter Barley “Suzuka” (setting [7]) it was 95%. For the same compound, the “Winter Wheat “Hereward” phytotoxicity (%)” value in the test on Winter Wheat “Hereward” (setting [8]) was determined as 58%; with Winter Wheat “Hereward” (setting [5]) it was 65%; in the test with Winter Wheat “Hereward” (setting [6]), 89%; in the test with Winter Wheat “Hereward” (setting [7]), 75%.
